Data reported in the kinase profiling compilation of Christmann-Franck et al. (2016).

Columns and labels:
Test in all cases: radiometric filter-binding kinase assay, Kinase HotSpot
Conditions in all cases: compound 0.5 µM; ATP 10 µM
HIPK1 (human) = HIPK1 (human) (UniProt Q86Z02)
HIPK3 (human) = HIPK3 (human) (UniProt Q9H422)
CDK9 CCNT1 (human) = CDK9 CCNT1 (human) (UniProt P50750+O60563)
IRAK4 (human) = IRAK4 (human) (UniProt Q9NWZ3)
PLK3 (human) = PLK3 (human) (UniProt Q9H4B4)
CSNK1E (human) = CSNK1E (human) (UniProt P49674)
SYK (human) = SYK (human) (UniProt P43405)
SLK (human) = SLK (human) (UniProt Q9H2G2)
CDK9 CCNK (human) = CDK9 CCNK (human) (UniProt O75909+P50750)
RPS6KB1 (human) = RPS6KB1 (human) (UniProt P23443)
CLK1 (human) = CLK1 (human) (UniProt P49759)
AURKC (human) = AURKC (human) (UniProt Q9UQB9)
CDK5 CDK5R1 p35 (human) = CDK5 CDK5R1 p35 (human) (UniProt Q00535+Q15078)
GRK7 (human) = GRK7 (human) (UniProt Q8WTQ7)
GRK7 (human), sequence (Q8WTQ7 whole entry, looked up): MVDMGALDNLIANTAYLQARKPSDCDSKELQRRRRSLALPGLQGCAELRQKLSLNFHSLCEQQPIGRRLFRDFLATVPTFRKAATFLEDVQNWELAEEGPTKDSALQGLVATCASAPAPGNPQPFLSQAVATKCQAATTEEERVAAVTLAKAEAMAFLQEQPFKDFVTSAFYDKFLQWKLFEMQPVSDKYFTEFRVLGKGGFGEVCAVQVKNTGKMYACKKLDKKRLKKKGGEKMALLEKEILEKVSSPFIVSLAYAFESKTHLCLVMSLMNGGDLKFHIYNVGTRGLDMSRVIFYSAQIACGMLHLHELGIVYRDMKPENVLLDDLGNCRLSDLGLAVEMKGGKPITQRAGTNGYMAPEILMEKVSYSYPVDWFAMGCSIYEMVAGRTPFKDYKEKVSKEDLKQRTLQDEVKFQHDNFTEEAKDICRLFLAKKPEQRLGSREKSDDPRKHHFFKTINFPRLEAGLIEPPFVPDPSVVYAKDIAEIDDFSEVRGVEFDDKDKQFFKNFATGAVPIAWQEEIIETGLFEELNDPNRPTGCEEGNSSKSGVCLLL

MAP3K2 (human) = MAP3K2 (human) (UniProt Q9Y2U5)
MAPKAPK2 (human) = MAPKAPK2 (human) (UniProt P49137)
PNCK (human) = PNCK (human) (UniProt Q6P2M8)
MAP4K5 (human) = MAP4K5 (human) (UniProt Q9Y4K4)
TAOK3 (human) = TAOK3 (human) (UniProt Q9H2K8)
TAOK3 (human), sequence (Q9H2K8 whole entry, looked up): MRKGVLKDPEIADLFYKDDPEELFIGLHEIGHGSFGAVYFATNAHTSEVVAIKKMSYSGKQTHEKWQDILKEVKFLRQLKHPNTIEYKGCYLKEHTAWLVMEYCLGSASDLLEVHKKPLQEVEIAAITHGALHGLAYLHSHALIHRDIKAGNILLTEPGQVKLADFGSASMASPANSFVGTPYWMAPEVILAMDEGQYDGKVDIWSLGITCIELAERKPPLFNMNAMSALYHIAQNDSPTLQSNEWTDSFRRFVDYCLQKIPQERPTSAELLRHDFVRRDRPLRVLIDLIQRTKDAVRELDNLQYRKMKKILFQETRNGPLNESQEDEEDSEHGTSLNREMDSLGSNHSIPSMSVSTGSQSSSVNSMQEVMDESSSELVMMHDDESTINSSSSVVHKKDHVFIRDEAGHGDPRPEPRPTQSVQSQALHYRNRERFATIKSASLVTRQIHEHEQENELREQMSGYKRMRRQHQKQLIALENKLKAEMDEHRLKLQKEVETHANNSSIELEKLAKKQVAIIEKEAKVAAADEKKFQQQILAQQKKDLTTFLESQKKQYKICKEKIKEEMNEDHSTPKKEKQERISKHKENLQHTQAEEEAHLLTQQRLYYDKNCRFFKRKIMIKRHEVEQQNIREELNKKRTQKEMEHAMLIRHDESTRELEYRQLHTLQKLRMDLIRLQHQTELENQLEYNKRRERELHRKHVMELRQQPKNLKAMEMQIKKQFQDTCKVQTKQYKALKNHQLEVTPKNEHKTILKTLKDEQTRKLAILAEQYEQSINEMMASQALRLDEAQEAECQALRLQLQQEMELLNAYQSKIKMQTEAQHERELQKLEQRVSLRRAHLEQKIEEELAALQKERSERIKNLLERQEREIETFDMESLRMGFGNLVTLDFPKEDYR

FGR (human) = FGR (human) (UniProt P09769)
PRKCH (human) = PRKCH (human) (UniProt P24723)
FLT1 (human) = FLT1 (human) (UniProt P17948)
FLT1 (human), sequence (P17948 whole entry, looked up): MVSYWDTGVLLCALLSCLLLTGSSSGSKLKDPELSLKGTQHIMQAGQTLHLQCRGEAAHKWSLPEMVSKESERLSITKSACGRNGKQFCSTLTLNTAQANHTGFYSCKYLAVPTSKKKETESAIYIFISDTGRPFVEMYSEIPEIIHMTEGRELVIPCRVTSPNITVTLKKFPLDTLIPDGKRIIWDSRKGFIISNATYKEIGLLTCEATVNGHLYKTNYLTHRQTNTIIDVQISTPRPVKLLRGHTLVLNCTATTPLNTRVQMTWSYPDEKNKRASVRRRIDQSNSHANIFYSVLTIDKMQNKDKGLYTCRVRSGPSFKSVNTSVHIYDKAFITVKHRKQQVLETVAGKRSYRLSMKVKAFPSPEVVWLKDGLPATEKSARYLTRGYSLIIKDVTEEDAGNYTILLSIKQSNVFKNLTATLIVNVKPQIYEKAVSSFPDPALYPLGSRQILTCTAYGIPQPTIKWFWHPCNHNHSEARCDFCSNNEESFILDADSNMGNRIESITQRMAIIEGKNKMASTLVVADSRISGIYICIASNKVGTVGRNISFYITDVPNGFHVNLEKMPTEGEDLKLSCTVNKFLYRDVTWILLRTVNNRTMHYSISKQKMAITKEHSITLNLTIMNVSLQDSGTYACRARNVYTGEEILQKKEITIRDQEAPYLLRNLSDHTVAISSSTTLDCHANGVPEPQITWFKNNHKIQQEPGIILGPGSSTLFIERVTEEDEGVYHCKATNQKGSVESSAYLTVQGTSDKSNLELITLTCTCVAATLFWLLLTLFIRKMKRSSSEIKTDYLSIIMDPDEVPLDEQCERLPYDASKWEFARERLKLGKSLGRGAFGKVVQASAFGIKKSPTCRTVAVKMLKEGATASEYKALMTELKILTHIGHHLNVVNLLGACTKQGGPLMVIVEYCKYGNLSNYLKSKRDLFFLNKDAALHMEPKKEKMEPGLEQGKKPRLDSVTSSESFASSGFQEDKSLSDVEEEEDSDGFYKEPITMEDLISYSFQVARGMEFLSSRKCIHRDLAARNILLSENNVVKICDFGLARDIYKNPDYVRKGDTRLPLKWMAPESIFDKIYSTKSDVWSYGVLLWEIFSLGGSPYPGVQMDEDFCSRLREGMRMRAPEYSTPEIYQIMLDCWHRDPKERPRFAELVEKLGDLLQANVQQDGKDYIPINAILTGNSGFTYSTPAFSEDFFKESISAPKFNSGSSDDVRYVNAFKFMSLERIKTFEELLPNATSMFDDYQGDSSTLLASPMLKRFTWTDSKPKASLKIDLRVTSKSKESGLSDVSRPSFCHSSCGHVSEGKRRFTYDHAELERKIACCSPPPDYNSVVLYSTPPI

AURKA (human) = AURKA (human) (UniProt O14965)
MAP3K3 (human) = MAP3K3 (human) (UniProt Q99759)
SGK3 (human) = SGK3 (human) (UniProt Q96BR1)
TEK (human) = TEK (human) (UniProt Q02763)
SGK2 (human) = SGK2 (human) (UniProt Q9HBY8)
SGK2 (human), sequence (Q9HBY8 whole entry, looked up): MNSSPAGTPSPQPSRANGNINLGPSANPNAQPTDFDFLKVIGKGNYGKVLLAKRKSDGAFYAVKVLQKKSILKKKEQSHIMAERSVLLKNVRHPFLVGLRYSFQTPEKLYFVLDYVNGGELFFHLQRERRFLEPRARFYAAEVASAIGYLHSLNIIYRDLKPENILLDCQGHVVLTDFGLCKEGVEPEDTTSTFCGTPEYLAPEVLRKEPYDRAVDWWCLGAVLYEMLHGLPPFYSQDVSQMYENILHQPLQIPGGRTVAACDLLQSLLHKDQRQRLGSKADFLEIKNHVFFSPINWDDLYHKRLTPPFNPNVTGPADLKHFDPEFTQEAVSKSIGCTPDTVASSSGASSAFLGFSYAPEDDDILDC

CAMK1D (human) = CAMK1D (human) (UniProt Q8IU85)
TNK2 (human) = TNK2 (human) (UniProt Q07912)
NEK1 (human) = NEK1 (human) (UniProt Q96PY6)
MAP3K11 (human) = MAP3K11 (human) (UniProt Q16584)
RAF1 (human) = RAF1 (human) (UniProt P04049)
STK4 (human) = STK4 (human) (UniProt Q13043)
NTRK1 (human) = NTRK1 (human) (UniProt P04629)
STK10 (human) = STK10 (human) (UniProt O94804)
NTRK3 (human) = NTRK3 (human) (UniProt Q16288)
HIPK4 (human) = HIPK4 (human) (UniProt Q8NE63)
MAP3K8 (human) = MAP3K8 (human) (UniProt P41279)
MAP3K8 (human), sequence (P41279 whole entry, looked up): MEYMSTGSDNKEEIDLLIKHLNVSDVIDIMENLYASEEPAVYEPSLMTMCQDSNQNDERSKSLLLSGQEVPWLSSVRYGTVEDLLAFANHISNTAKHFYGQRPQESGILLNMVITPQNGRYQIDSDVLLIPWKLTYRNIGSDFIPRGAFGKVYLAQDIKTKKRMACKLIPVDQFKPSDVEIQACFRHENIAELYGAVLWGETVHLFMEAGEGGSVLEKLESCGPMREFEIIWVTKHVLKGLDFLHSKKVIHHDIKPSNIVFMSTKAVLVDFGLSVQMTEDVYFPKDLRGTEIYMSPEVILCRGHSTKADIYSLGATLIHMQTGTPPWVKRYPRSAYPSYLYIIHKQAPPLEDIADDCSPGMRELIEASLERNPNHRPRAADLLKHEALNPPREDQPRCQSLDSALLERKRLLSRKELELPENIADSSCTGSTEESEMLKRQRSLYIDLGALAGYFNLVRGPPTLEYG

VRK1 (human) = VRK1 (human) (UniProt Q99986)
FGFR4 (human) = FGFR4 (human) (UniProt P22455)
FGFR4 (human), sequence (P22455 whole entry, looked up): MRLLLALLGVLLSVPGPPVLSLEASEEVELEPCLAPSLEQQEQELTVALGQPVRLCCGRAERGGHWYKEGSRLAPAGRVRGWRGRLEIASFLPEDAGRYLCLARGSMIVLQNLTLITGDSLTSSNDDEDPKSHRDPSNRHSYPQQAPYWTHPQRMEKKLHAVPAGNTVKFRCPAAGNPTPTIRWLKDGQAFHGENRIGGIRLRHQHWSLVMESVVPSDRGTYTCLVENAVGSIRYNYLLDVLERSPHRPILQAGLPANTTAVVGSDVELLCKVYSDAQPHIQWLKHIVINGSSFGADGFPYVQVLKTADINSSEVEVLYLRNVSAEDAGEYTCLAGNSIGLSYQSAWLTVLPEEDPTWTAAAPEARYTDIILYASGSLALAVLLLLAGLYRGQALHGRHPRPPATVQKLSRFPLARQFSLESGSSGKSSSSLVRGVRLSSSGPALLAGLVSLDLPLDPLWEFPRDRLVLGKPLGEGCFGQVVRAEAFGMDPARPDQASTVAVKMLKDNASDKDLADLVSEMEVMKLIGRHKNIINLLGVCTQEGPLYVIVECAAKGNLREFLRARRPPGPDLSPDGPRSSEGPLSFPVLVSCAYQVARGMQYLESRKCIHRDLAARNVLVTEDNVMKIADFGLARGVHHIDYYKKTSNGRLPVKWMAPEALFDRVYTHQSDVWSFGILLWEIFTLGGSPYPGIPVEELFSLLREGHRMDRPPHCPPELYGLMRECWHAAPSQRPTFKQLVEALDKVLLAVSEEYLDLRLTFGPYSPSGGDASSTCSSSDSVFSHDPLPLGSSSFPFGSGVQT

WEE1 (human) = WEE1 (human) (UniProt P30291)
PAK2 (human) = PAK2 (human) (UniProt Q13177)

IRAK4 (human), sequence (Q9NWZ3 whole entry, looked up): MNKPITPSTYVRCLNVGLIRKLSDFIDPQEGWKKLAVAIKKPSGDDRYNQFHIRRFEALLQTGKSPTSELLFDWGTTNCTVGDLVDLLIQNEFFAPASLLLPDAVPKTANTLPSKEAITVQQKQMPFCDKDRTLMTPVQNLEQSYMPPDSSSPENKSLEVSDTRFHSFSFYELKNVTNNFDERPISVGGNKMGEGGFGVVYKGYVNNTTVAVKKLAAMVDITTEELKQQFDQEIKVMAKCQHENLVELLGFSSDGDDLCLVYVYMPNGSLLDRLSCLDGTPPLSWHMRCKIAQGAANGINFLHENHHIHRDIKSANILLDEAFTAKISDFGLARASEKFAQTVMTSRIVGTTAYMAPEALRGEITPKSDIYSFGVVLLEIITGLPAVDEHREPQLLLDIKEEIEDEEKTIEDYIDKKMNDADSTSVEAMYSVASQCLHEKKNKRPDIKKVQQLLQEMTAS

## O=C1Nc2ccccc2/C1=C\c1c(Cl)[nH]c2ccccc12
HIPK1 (human)
  residual activity: 100%
HIPK3 (human)
  residual activity: 100%
CDK9 CCNT1 (human)
  residual activity: 98.4%
IRAK4 (human)
  residual activity: 102%
PLK3 (human)
  residual activity: 101%
CSNK1E (human)
  residual activity: 87.8%
SYK (human)
  residual activity: 102%
SLK (human)
  residual activity: 93.5%
CDK9 CCNK (human)
  residual activity: 98.3%
RPS6KB1 (human)
  residual activity: 99.7%
CLK1 (human)
  residual activity: 103%
AURKC (human)
  residual activity: 89.5%
CDK5 CDK5R1 p35 (human)
  residual activity: 86.7%
GRK7 (human)
  residual activity: 106%
MAP3K2 (human)
  residual activity: 94%
MAPKAPK2 (human)
  residual activity: 101%
PNCK (human)
  residual activity: 92.9%
MAP4K5 (human)
  residual activity: 95%
TAOK3 (human)
  residual activity: 93.9%
FGR (human)
  residual activity: 90.5%
PRKCH (human)
  residual activity: 73.6%
FLT1 (human)
  residual activity: 88.6%
AURKA (human)
  residual activity: 108%
MAP3K3 (human)
  residual activity: 112%
SGK3 (human)
  residual activity: 102%
TEK (human)
  residual activity: 97.1%
SGK2 (human)
  residual activity: 103%
CAMK1D (human)
  residual activity: 102%
TNK2 (human)
  residual activity: 98.4%
NEK1 (human)
  residual activity: 96.7%
MAP3K11 (human)
  residual activity: 100%
RAF1 (human)
  residual activity: 89.9%
STK4 (human)
  residual activity: 91%
NTRK1 (human)
  residual activity: 90.7%
STK10 (human)
  residual activity: 90.9%
NTRK3 (human)
  residual activity: 92.9%
HIPK4 (human)
  residual activity: 98.8%
MAP3K8 (human)
  residual activity: 94.3%
VRK1 (human)
  residual activity: 104%
FGFR4 (human)
  residual activity: 96.9%
WEE1 (human)
  residual activity: 107%

## C#Cc1cccc(Nc2ncnc3cc(OCCOC)c(OCCOC)cc23)c1
PAK2 (human)
  residual activity: 99.1%
HIPK3 (human)
  residual activity: 102%
CDK9 CCNT1 (human)
  residual activity: 87.3%
IRAK4 (human)
  residual activity: 93.8%
PLK3 (human)
  residual activity: 102%
CSNK1E (human)
  residual activity: 98.2%
SLK (human)
  residual activity: 42%
CDK9 CCNK (human)
  residual activity: 102%
RPS6KB1 (human)
  residual activity: 95.1%
CLK1 (human)
  residual activity: 107%
CDK5 CDK5R1 p35 (human)
  residual activity: 108%
GRK7 (human)
  residual activity: 98.3%
MAP3K2 (human)
  residual activity: 117%
PNCK (human)
  residual activity: 103%
MAP4K5 (human)
  residual activity: 95.6%
TAOK3 (human)
  residual activity: 106%
PRKCH (human)
  residual activity: 116%
FLT1 (human)
  residual activity: 87.5%
AURKA (human)
  residual activity: 75.3%
SGK3 (human)
  residual activity: 100%
TEK (human)
  residual activity: 94%
SGK2 (human)
  residual activity: 107%
CAMK1D (human)
  residual activity: 98.8%
NEK1 (human)
  residual activity: 73.8%
MAP3K11 (human)
  residual activity: 104%
RAF1 (human)
  residual activity: 93.7%
STK4 (human)
  residual activity: 97.4%
NTRK1 (human)
  residual activity: 102%
STK10 (human)
  residual activity: 20.3%
NTRK3 (human)
  residual activity: 96%
MAP3K8 (human)
  residual activity: 91.8%
VRK1 (human)
  residual activity: 103%
FGFR4 (human)
  residual activity: 93.3%
WEE1 (human)
  residual activity: 95.2%

## Nc1nc(Nc2ccc(S(N)(=O)=O)cc2)nn1C(=O)c1c(F)cccc1F
HIPK1 (human)
  residual activity: 106%
HIPK3 (human)
  residual activity: 91.2%
CDK9 CCNT1 (human)
  residual activity: 27.6%
IRAK4 (human)
  residual activity: 151%
PLK3 (human)
  residual activity: 91.3%
CSNK1E (human)
  residual activity: 96.9%
SYK (human)
  residual activity: 61.6%
SLK (human)
  residual activity: 19.1%
CDK9 CCNK (human)
  residual activity: 27.4%
RPS6KB1 (human)
  residual activity: 92.1%
CLK1 (human)
  residual activity: 85.1%
AURKC (human)
  residual activity: 28.3%
CDK5 CDK5R1 p35 (human)
  residual activity: 0.212%
GRK7 (human)
  residual activity: 65.9%
MAP3K2 (human)
  residual activity: 11.3%
MAPKAPK2 (human)
  residual activity: 95.8%
PNCK (human)
  residual activity: 107%
MAP4K5 (human)
  residual activity: 45.3%
TAOK3 (human)
  residual activity: 39.9%
FGR (human)
  residual activity: 63.5%
PRKCH (human)
  residual activity: 100%
FLT1 (human)
  residual activity: 90.7%
MAP3K3 (human)
  residual activity: 27.5%
SGK3 (human)
  residual activity: 114%
TEK (human)
  residual activity: 84.2%
SGK2 (human)
  residual activity: 106%
CAMK1D (human)
  residual activity: 97.7%
TNK2 (human)
  residual activity: 68%
NEK1 (human)
  residual activity: 76.3%
MAP3K11 (human)
  residual activity: 47.2%
RAF1 (human)
  residual activity: 95.7%
STK4 (human)
  residual activity: 19.9%
NTRK1 (human)
  residual activity: 98.8%
STK10 (human)
  residual activity: 17%
NTRK3 (human)
  residual activity: 37.6%
HIPK4 (human)
  residual activity: 67.7%
MAP3K8 (human)
  residual activity: 94.4%
VRK1 (human)
  residual activity: 90.4%
FGFR4 (human)
  residual activity: 90.3%
WEE1 (human)
  residual activity: 83.6%
